From ChEMBL document CHEMBL1155520, “Novel 8a-aza-8a-homoerythromycin--4''-(3-substituted-amino)propionates with broad spectrum antibacterial activity” (2010)
Converted amounts (≈) assume the structure as drawn.

Columns and labels:
Assay type in all cases: functional
[1] = tested on: Streptococcus pyogenes; experiment: Antimicrobial activity against inducible macrolide and constitutive lincosamide, streptogramin-resistant Streptococcus pyogenes 166 GR-micro
[2] = tested on: Streptococcus pyogenes; experiment: Antimicrobial activity against inducible macrolide-resistant Streptococcus pyogenes Finland 3
[3] = tested on: Streptococcus pneumoniae; experiment: Antimicrobial activity against inducible macrolide and constitutive lincosamide, streptogramin-resistant Streptococcus pneumoniae 58 Spain
[4] = tested on: Staphylococcus aureus; experiment: Antimicrobial activity against macrolide-sensitive Staphylococcus aureus PK1
[5] = tested on: Streptococcus pyogenes; experiment: Antimicrobial activity against inducible macrolide, lincosamide, streptogramin-resistant Streptococcus pyogenes Finland 11
[6] = tested on: Streptococcus pneumoniae; experiment: Antimicrobial activity against inducible macrolide, lincosamide, streptogramin-resistant Streptococcus pneumoniae 134 GRM
[7] = tested on: Streptococcus pneumoniae; experiment: Antimicrobial activity against macrolide-resistant Streptococcus pneumoniae Ci137
[8] = tested on: Staphylococcus aureus; experiment: Antimicrobial activity against macrolide-sensitive Staphylococcus aureus ATCC 13709
[9] = tested on: Haemophilus influenzae; experiment: Antimicrobial activity against Haemophilus influenzae ATCC 49247
[10] = tested on: Streptococcus pneumoniae; experiment: Antimicrobial activity against inducible macrolide and constitutive lincosamide, streptogramin-resistant Streptococcus pneumoniae 4636
[11] = tested on: Streptococcus pyogenes; experiment: Antimicrobial activity against macrolide-sensitive Streptococcus pyogenes 3665
[12] = tested on: Streptococcus pneumoniae; experiment: Antimicrobial activity against macrolide-sensitive Streptococcus pneumoniae SPO 30

Compound	MIC [1]	MIC [2]	MIC [3]	MIC [4]	MIC [5]	MIC [6]	MIC [7]	MIC [8]	MIC [9]	MIC [10]	MIC [11]	MIC [12]
CC[C@H]1OC(=O)[C@H](C)[C@@H](O[C@H]2C[C@@](C)(OC)[C@@H](OC(=O)CCNCCNc3cc4c(cc3F)c(=O)c(C(=O)O)cn4C3CC3)[C@H](C)O2)[C@H](C)[C@@H](O[C@@H]2O[C@H](C)C[C@H](N(C)C)[C@H]2O)[C@](C)(O)C[C@@H](C)NC(=O)[C@H](C)[C@@H](O)[C@]1(C)O	0.25 µg/mL (≈ 0.226 µM)	0.25 µg/mL (≈ 0.226 µM)	< 0.13 µg/mL	0.5 µg/mL (≈ 0.451 µM)	< 0.13 µg/mL	< 0.13 µg/mL	< 0.13 µg/mL	0.25 µg/mL (≈ 0.226 µM)				
CC[C@H]1OC(=O)[C@H](C)[C@@H](O[C@H]2C[C@@](C)(OC)[C@@H](OC(=O)CCN3CCN(c4cc5c(cc4F)c(=O)c(C(=O)O)cn5C4CC4)CC3)[C@H](C)O2)[C@H](C)[C@@H](O[C@@H]2O[C@H](C)C[C@H](N(C)C)[C@H]2O)[C@](C)(OC)C[C@@H](C)NC(=O)[C@H](C)[C@@H](O)[C@]1(C)O	8 µg/mL (≈ 6.97 µM)	0.5 µg/mL (≈ 0.435 µM)	16 µg/mL (≈ 13.9 µM)	2 µg/mL (≈ 1.74 µM)	0.5 µg/mL (≈ 0.435 µM)	8 µg/mL (≈ 6.97 µM)	< 0.13 µg/mL	1 µg/mL (≈ 0.871 µM)	1 µg/mL (≈ 0.871 µM)			
CC[C@H]1OC(=O)[C@H](C)[C@@H](O[C@H]2C[C@@](C)(OC)[C@@H](OC(=O)CCN3CCN(C(=O)c4ccco4)CC3)[C@H](C)O2)[C@H](C)[C@@H](O[C@@H]2O[C@H](C)C[C@H](N(C)C)[C@H]2O)[C@](C)(OC)C[C@@H](C)NC(=O)[C@H](C)[C@@H](O)[C@]1(C)O					16 µg/mL (≈ 16 µM)		2 µg/mL (≈ 2.01 µM)	2 µg/mL (≈ 2.01 µM)	4 µg/mL (≈ 4.01 µM)	32 µg/mL (≈ 32.1 µM)	< 0.13 µg/mL	< 0.13 µg/mL
CC[C@H]1OC(=O)[C@H](C)[C@@H](O[C@H]2C[C@@](C)(OC)[C@@H](OC(=O)CCNCC(=O)Nc3cnc4ccccc4c3)[C@H](C)O2)[C@H](C)[C@@H](O[C@@H]2O[C@H](C)C[C@H](N(C)C)[C@H]2O)[C@](C)(OC)C[C@@H](C)NC(=O)[C@H](C)[C@@H](O)[C@]1(C)O					16 µg/mL (≈ 15.7 µM)		2 µg/mL (≈ 1.96 µM)	2 µg/mL (≈ 1.96 µM)	> 32 µg/mL	> 32 µg/mL	< 0.13 µg/mL	< 0.13 µg/mL
CC[C@H]1OC(=O)[C@H](C)[C@@H](O[C@H]2C[C@@](C)(OC)[C@@H](OC(=O)CCNCC(=O)Nc3ccc([N+](=O)[O-])cc3)[C@H](C)O2)[C@H](C)[C@@H](O[C@@H]2O[C@H](C)C[C@H](N(C)C)[C@H]2O)[C@](C)(O)C[C@@H](C)NC(=O)[C@H](C)[C@@H](O)[C@]1(C)O					4 µg/mL (≈ 4.01 µM)		4 µg/mL (≈ 4.01 µM)	2 µg/mL (≈ 2 µM)	8 µg/mL (≈ 8.01 µM)	32 µg/mL (≈ 32.1 µM)	< 0.13 µg/mL	< 0.13 µg/mL
CC[C@H]1OC(=O)[C@H](C)[C@@H](O[C@H]2C[C@@](C)(OC)[C@@H](OC(=O)CCN[C@@H](C)c3ccc([N+](=O)[O-])cc3)[C@H](C)O2)[C@H](C)[C@@H](O[C@@H]2O[C@H](C)C[C@H](N(C)C)[C@H]2O)[C@](C)(OC)C[C@@H](C)NC(=O)[C@H](C)[C@@H](O)[C@]1(C)O					4 µg/mL (≈ 4.07 µM)		2 µg/mL (≈ 2.03 µM)	2 µg/mL (≈ 2.03 µM)	32 µg/mL (≈ 32.5 µM)	> 32 µg/mL	< 0.13 µg/mL	< 0.13 µg/mL
CC[C@H]1OC(=O)[C@H](C)[C@@H](O[C@H]2C[C@@](C)(OC)[C@@H](OC(=O)CCN[C@@H](C)C(=O)Nc3ccc4ccccc4c3)[C@H](C)O2)[C@H](C)[C@@H](O[C@@H]2O[C@H](C)C[C@H](N(C)C)[C@H]2O)[C@](C)(O)C[C@@H](C)NC(=O)[C@H](C)[C@@H](O)[C@]1(C)O					8 µg/mL (≈ 7.86 µM)		0.5 µg/mL (≈ 0.492 µM)	2 µg/mL (≈ 1.97 µM)	2 µg/mL (≈ 1.97 µM)	32 µg/mL (≈ 31.5 µM)	< 0.13 µg/mL	< 0.13 µg/mL
CC[C@H]1OC(=O)[C@H](C)[C@@H](O[C@H]2C[C@@](C)(OC)[C@@H](OC(=O)CCN[C@H](C)c3ccc([N+](=O)[O-])cc3)[C@H](C)O2)[C@H](C)[C@@H](O[C@@H]2O[C@H](C)C[C@H](N(C)C)[C@H]2O)[C@](C)(O)C[C@@H](C)NC(=O)[C@H](C)[C@@H](O)[C@]1(C)O					8 µg/mL (≈ 8.25 µM)		4 µg/mL (≈ 4.13 µM)	4 µg/mL (≈ 4.13 µM)	4 µg/mL (≈ 4.13 µM)	32 µg/mL (≈ 33 µM)	< 0.13 µg/mL	< 0.13 µg/mL
CC[C@H]1OC(=O)[C@H](C)[C@@H](O[C@H]2C[C@@](C)(OC)[C@@H](OC(=O)CCN3CCN(C(=O)c4ccco4)CC3)[C@H](C)O2)[C@H](C)[C@@H](O[C@@H]2O[C@H](C)C[C@H](N(C)C)[C@H]2O)[C@](C)(O)C[C@@H](C)NC(=O)[C@H](C)[C@@H](O)[C@]1(C)O					8 µg/mL (≈ 8.14 µM)		2 µg/mL (≈ 2.03 µM)	4 µg/mL (≈ 4.07 µM)	16 µg/mL (≈ 16.3 µM)	> 64 µg/mL	< 0.13 µg/mL	< 0.13 µg/mL
CC[C@H]1OC(=O)[C@H](C)[C@@H](O[C@H]2C[C@@](C)(OC)[C@@H](OC(=O)CCNCC(=O)Nc3ccc4cccnc4c3)[C@H](C)O2)[C@H](C)[C@@H](O[C@@H]2O[C@H](C)C[C@H](N(C)C)[C@H]2O)[C@](C)(OC)C[C@@H](C)NC(=O)[C@H](C)[C@@H](O)[C@]1(C)O					16 µg/mL (≈ 15.7 µM)		4 µg/mL (≈ 3.93 µM)	2 µg/mL (≈ 1.96 µM)	> 32 µg/mL	> 32 µg/mL	< 0.13 µg/mL	< 0.13 µg/mL
CC[C@H]1OC(=O)[C@H](C)[C@@H](O[C@H]2C[C@@](C)(OC)[C@@H](OC(=O)CCNCC(=O)Nc3cccc4ncccc34)[C@H](C)O2)[C@H](C)[C@@H](O[C@@H]2O[C@H](C)C[C@H](N(C)C)[C@H]2O)[C@](C)(OC)C[C@@H](C)NC(=O)[C@H](C)[C@@H](O)[C@]1(C)O					32 µg/mL (≈ 31.4 µM)		16 µg/mL (≈ 15.7 µM)	8 µg/mL (≈ 7.86 µM)	> 32 µg/mL	> 32 µg/mL	0.25 µg/mL (≈ 0.246 µM)	< 0.13 µg/mL
CC[C@H]1OC(=O)[C@H](C)[C@@H](O[C@H]2C[C@@](C)(OC)[C@@H](OC(=O)CCN[C@@H](C)C(=O)Nc3ccc([N+](=O)[O-])cc3)[C@H](C)O2)[C@H](C)[C@@H](O[C@@H]2O[C@H](C)C[C@H](N(C)C)[C@H]2O)[C@](C)(O)C[C@@H](C)NC(=O)[C@H](C)[C@@H](O)[C@]1(C)O					4 µg/mL (≈ 3.95 µM)		2 µg/mL (≈ 1.98 µM)	4 µg/mL (≈ 3.95 µM)	4 µg/mL (≈ 3.95 µM)	32 µg/mL (≈ 31.6 µM)	< 0.13 µg/mL	< 0.13 µg/mL
CC[C@H]1OC(=O)[C@H](C)[C@@H](O[C@H]2C[C@@](C)(OC)[C@@H](OC(=O)CCN3CCN(c4cc5c(cc4F)c(=O)ccn5C4CC4)CC3)[C@H](C)O2)[C@H](C)[C@@H](O[C@@H]2O[C@H](C)C[C@H](N(C)C)[C@H]2O)[C@](C)(O)C[C@@H](C)NC(=O)[C@H](C)[C@@H](O)[C@]1(C)O			> 32 µg/mL		0.5 µg/mL (≈ 0.459 µM)	> 32 µg/mL	< 0.13 µg/mL	1 µg/mL (≈ 0.917 µM)	8 µg/mL (≈ 7.34 µM)			
CC[C@H]1OC(=O)[C@H](C)[C@@H](O[C@H]2C[C@@](C)(OC)[C@@H](OC(=O)CCNCC(=O)Nc3ccc4ccccc4c3)[C@H](C)O2)[C@H](C)[C@@H](O[C@@H]2O[C@H](C)C[C@H](N(C)C)[C@H]2O)[C@](C)(OC)C[C@@H](C)NC(=O)[C@H](C)[C@@H](O)[C@]1(C)O					16 µg/mL (≈ 15.7 µM)		2 µg/mL (≈ 1.97 µM)	1 µg/mL (≈ 0.983 µM)	2 µg/mL (≈ 1.97 µM)	16 µg/mL (≈ 15.7 µM)	< 0.13 µg/mL	< 0.13 µg/mL
CC[C@H]1OC(=O)[C@H](C)[C@@H](O[C@H]2C[C@@](C)(OC)[C@@H](OC(=O)CCNCCNc3cncc([N+](=O)[O-])c3)[C@H](C)O2)[C@H](C)[C@@H](O[C@@H]2O[C@H](C)C[C@H](N(C)C)[C@H]2O)[C@](C)(OC)C[C@@H](C)NC(=O)[C@H](C)[C@@H](O)[C@]1(C)O					0.25 µg/mL (≈ 0.25 µM)		0.5 µg/mL (≈ 0.5 µM)	0.25 µg/mL (≈ 0.25 µM)	4 µg/mL (≈ 4 µM)	4 µg/mL (≈ 4 µM)	< 0.13 µg/mL	< 0.13 µg/mL
CC[C@H]1OC(=O)[C@H](C)[C@@H](O[C@H]2C[C@@](C)(OC)[C@@H](OC(=O)CCNCC(=O)Nc3ccc4ccccc4c3)[C@H](C)O2)[C@H](C)[C@@H](O[C@@H]2O[C@H](C)C[C@H](N(C)C)[C@H]2O)[C@](C)(O)C[C@@H](C)NC(=O)[C@H](C)[C@@H](O)[C@]1(C)O					8 µg/mL (≈ 7.97 µM)		2 µg/mL (≈ 1.99 µM)	4 µg/mL (≈ 3.99 µM)	4 µg/mL (≈ 3.99 µM)	32 µg/mL (≈ 31.9 µM)	< 0.13 µg/mL	< 0.13 µg/mL
